Laboratory results from publication PMC3082472 (2010).

System: RNA probe (thiol / methylene blue E-AB aptamer) (RNA, aptamer) GGGACUUGGUUUAGGUAAUGAGUCCC
Test: electrochemical aptamer-based sensor, square wave voltammetry
Conditions: 100 mM NaCl, 5 mM MgCl2; 20 mM Tris, pH 7.5; aptamer immobilised on gold

dissociation constants: 281 µM
Structure (SMILES): NC[C@H]1O[C@H](O[C@H]2[C@H](O)[C@@H](O[C@H]3O[C@H](CO)[C@@H](O)[C@H](N)[C@H]3O)[C@H](N)C[C@@H]2N)[C@H](O)[C@@H](O)[C@@H]1O
